In patent publication US9783536B2, “Nitrogen-containing heterocyclic compound or salt thereof” (FUJIFILM Corporation, priority 2013, dated 2017):
pIC50: −log10 of the molar value. Read-outs that look alike come from different tables or passages of the source.

Columns and labels:
[1] = target: T1, human PI3Kα protein (Homo sapiens, UniProt P42336); assay: PI3Kα enzyme assay (ADP-Glo); type: biochemical; conditions: read-out: PI3Kα enzyme inhibitory activity
T1 construct: purchased Carna Biosciences, Inc; host or cells: baculovirus expression system
T1 sequence (P42336 whole entry): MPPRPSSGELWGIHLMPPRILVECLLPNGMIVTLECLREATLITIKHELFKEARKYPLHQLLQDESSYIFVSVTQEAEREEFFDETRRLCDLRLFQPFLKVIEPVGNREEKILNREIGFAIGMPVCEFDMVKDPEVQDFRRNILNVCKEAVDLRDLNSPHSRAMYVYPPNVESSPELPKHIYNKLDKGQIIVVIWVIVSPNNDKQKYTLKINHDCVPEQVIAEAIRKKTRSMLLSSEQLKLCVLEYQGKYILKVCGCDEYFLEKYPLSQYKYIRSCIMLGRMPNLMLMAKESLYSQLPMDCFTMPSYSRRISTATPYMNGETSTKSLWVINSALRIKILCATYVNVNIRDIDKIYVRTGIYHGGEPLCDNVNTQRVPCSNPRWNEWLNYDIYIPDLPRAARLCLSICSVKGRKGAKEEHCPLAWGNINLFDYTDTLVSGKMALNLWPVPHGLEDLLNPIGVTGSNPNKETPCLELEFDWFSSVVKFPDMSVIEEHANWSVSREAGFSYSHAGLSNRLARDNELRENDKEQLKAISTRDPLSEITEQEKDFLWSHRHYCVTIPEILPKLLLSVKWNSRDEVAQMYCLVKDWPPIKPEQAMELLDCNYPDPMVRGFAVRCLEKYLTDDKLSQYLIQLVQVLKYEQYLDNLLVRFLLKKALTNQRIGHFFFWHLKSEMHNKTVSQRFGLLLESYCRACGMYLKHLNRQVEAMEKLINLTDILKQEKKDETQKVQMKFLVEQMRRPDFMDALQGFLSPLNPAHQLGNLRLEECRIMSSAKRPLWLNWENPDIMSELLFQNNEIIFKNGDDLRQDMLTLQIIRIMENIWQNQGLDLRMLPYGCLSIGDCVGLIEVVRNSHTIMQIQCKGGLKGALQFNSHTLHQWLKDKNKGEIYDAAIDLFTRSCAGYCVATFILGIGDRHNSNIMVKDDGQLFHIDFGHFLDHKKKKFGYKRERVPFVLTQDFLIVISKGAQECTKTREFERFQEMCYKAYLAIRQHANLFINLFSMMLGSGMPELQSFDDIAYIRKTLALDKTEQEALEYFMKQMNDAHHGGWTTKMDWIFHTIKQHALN
T1 sequence (P27986 whole entry partner): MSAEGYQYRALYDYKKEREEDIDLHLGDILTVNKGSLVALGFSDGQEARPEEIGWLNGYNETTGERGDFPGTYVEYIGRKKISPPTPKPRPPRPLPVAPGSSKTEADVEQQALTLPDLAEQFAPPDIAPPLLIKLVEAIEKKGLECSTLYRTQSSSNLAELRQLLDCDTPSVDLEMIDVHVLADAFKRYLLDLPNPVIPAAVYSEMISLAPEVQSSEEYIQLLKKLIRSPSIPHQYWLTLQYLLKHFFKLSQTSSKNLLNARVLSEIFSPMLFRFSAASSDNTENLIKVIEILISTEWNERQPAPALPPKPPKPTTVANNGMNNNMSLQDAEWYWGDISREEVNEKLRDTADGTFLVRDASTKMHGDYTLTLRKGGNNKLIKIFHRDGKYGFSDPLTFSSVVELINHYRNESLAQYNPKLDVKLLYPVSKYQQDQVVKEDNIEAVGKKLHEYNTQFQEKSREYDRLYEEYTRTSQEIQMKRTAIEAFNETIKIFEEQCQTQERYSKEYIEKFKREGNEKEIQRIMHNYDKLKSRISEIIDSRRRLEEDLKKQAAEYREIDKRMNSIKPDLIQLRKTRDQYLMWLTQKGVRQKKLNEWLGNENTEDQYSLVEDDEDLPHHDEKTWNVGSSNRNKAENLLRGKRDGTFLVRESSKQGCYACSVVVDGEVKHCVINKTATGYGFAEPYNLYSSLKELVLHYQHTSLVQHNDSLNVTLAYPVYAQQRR
In short: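 Biotinylated human PI3Kα (baculovirus-expressed, 4.5 nmol/L) pre-incubated 15 min with compound in Tris-HCl pH 7.5, MgCl2, BSA; reaction 60 min at 25° C with 50 μmol/L PIP2 and 100 μmol/L ATP final. ADP quantified by ADP-Glo luminescence; IC50 calculated.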

[2] = target: T2, GST fusion human ERK2 protein (Homo sapiens, UniProt P28482); assay: ERK2 enzyme assay (2); type: biochemical; conditions: read-out: ERK2 enzyme inhibitory activity (2)
T2 construct: purchased Carna Biosciences, Inc; host or cells: E. coli expression system
T2 sequence (P28482 whole entry, the tested form may be a part): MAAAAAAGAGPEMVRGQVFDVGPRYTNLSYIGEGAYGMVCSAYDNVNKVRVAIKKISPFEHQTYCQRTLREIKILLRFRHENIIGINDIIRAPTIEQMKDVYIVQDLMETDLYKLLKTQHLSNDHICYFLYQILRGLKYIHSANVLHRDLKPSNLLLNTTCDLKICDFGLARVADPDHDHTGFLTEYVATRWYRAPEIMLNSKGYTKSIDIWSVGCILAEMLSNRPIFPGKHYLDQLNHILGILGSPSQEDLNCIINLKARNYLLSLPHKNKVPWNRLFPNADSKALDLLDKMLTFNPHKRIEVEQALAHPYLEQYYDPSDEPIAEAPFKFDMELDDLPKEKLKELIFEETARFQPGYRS
In short: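 GST-tagged human ERK2 expressed in E. coli (1.25 nmol/L) was preincubated with compound for 15 min at room temperature in pH 7.5 Hepes buffer with MgCl2, DTT and Brij35. Reaction with FL-Peptide 8 (final 4.25 μmol/L) and ATP (final 1 mmol/L) ran 120 min at 25 °C; EDTA stopped it, and phosphorylated peptide was quantified by mobility-shift separation to derive IC50.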

| Compound | pIC50 [1] | pIC50 ([2]; ERK2 enzyme assay (2)) | pIC50 [2] |
| --- | --- | --- | --- |
| COCCC(=O)Nc1cnc2ccc(Nc3cc(C(C)C)cnn3)nc2c1 [Example 0632, N-(6-((5-isopropylpyridazin-3-yl)amino)-1,5-naphthyridin-3-yl)-3-methoxypropanamide] | > 6.00 | 5.00 to 6.00 |  |
| c1cncc(Cn2cc(-c3cnc4ccc(Nc5cc(C6CC6)cnn5)nc4c3)cn2)c1 [Example 0463, N-(5-cyclopropylpyridazin-3-yl)-7-(1-(pyridin-3-ylmethyl)-1H-pyrazol-4-yl)-1,5-naphthyridine-2-amine] | > 6.00 | > 6.00 |  |
| CC(=O)N1CCC(Nc2cnc3ccc(Nc4cc(C(C)C)cnn4)nc3c2)CC1 [Example 0540, 1-(4-((6-((5-Isopropylpyridazin-3-yl)amino)-1,5-naphthyridin-3-yl)amino)piperidin-1-yl)ethanone] | > 6.00 | 5.00 to 6.00 |  |
| CC(C)c1cnnc(Nc2ccc3ncc(-c4cn(C)nc4N(C)C)cc3n2)c1 [Example 0938, 7-(3-(Dimethylamino)-1-methyl-1H-pyrazol-4-yl)-N-(5-isopropylpyridazin-3-yl)-1,5-naphthyridine-2-amine] | > 6.00 |  | > 6.00 |
| CCC1CN(CCCn2cc(-c3cnc4ccc(Nc5cc(C(C)C)cnn5)nc4c3)cn2)CCO1 (centres unmarked) [Example 0684] | > 6.00 | > 6.00 |  |
| CCN(CC)C(=O)N1CCC(Cn2cc(-c3cnc4ccc(Nc5cc(C(C)C)cnn5)nc4c3)cn2)CC1 [Example 0531] | > 6.00 | > 6.00 |  |
| Cc1nn(C)cc1-c1cnc2ccc(Nc3cc(CS(=O)(=O)N(C)C)cnn3)nc2c1 [Example 0925, 1-(6-((7-(1,3-Dimethyl-1H-pyrazol-4-yl)-1,5-naphthyridin-2-yl)amino)pyridazin-4-yl)-N,N-dimethylmethane sulfonamide] | > 6.00 |  | > 6.00 |
| CCCN(CCC)c1cnnc(Nc2ccc3ncc(-c4cnn(C)c4)cc3n2)c1 [Example 0523] | > 6.00 | > 6.00 |  |
| CCC(C)c1cnnc(Nc2ccc3ncc(-c4cnn(C)c4)cc3n2)c1 (centres unmarked) [Example 0569] | > 6.00 | > 6.00 |  |
| CC(C)c1cnnc(Nc2ccc3ncc(-n4cnc(CCN(C)C)c4)cc3n2)c1 [Example 0503, 7-(4-(2-(Dimethylamino)ethyl)-1H-imidazol-1-yl)-N-(5-isopropylpyridazin-3-yl)-1,5-naphthyridine-2-amine] | > 6.00 | > 6.00 |  |
| CC(C)c1cnnc(Nc2ccc3ncc(N(C)S(C)(=O)=O)cc3n2)c1 [Example 0841, N-(6-((5-isopropylpyridazin-3-yl)amino)-1,5-naphthyridin-3-yl)-N-methylmethane sulfonamide] | 5.00 to 6.00 | 5.00 to 6.00 |  |
| CC(C)c1cnnc(Nc2ccc3ncc(-c4cnn(CCCN5C[C@@H](C)N(C(=O)N(C)C)[C@@H](C)C5)c4)cc3n2)c1 [Example 0436] | > 6.00 | > 6.00 |  |
| CCn1cc(-c2cnc3ccc(Nc4cc(C(C)C)cnn4)nc3c2)c(-c2ccncc2)n1 [Example 0771] | > 6.00 | > 6.00 |  |
| COC(CCn1cc(-c2cnc3ccc(Nc4cc(C(C)C)cnn4)nc3c2)cn1)OC [Example 0646, 7-(1-(3,3-dimethoxypropyl)-1H-pyrazol-4-yl)-N-(5-isopropylpyridazin-3-yl)-1,5-naphthyridine-2-amine] | > 6.00 | > 6.00 |  |
| CC(C)c1cnnc(Nc2ccc3ncc(-c4cnn(CC(CN5CCOCC5)OCC5CC5)c4)cc3n2)c1 (centres unmarked) [Example 0745] | > 6.00 | > 6.00 |  |
| CC(C)c1cnnc(Nc2ccc3ncc(N4CCOC[C@@H]4C)cc3n2)c1 [Example 0764] | > 6.00 | > 6.00 |  |
| CC(C)c1cnnc(Nc2ccc3ncc(-c4cncnc4)cc3n2)c1 [Example 0604] | 4.30 to 5.00 | > 6.00 |  |
| CC(C)c1cnnc(Nc2ccc3ncc(-c4cn(C)nc4NC4CCCC4)cc3n2)c1 [Example 0948] | > 6.00 |  | > 6.00 |
| CC(C)c1cnnc(Nc2ccc3ncc(-c4cnn(C[C@H]5CC[C@H](O)CC5)c4)cc3n2)c1 [Example 0521] | > 6.00 | > 6.00 |  |
| CC(C)c1cnnc(Nc2ccc3ncc(-c4cn(C)nc4CN(C)c4cccnc4)cc3n2)c1 [Example 0808] | 5.00 to 6.00 | > 6.00 |  |
| CC(C)c1cnnc(Nc2ccc3ncc(-c4cnccn4)cc3n2)c1 [Example 0606] | 5.00 to 6.00 | > 6.00 |  |
| C=C(C)c1cnnc(Nc2ccc3ncc(-c4cn(C)nc4C)cc3n2)c1 [Example 0785] | > 6.00 | > 6.00 |  |
| CC(C)c1cnnc(Nc2ccc3ncc(-c4cnn(/C=C(\F)CN5CCCC5)c4)cc3n2)c1 [Example 0726, (Z)-7-(1-(2-fluoro-3-(pyrrolidin-1-yl)-1-propen-1-yl)-1H-pyrazol-4-yl)-N-(5-isopropylpyridazin-3-yl)-1,5-naphthyridine-2-amine] | > 6.00 | > 6.00 |  |

| Compound | pIC50 [1] | pIC50 ([2]; ERK2 enzyme assay (2)) | pIC50 [2] |
| --- | --- | --- | --- |
| CC(C)c1cnnc(Nc2ccc3ncc(-n4cnc(CC#N)c4)cc3n2)c1 [Example 0508, 2-(1-(6-((5-Isopropylpyridazin-3-yl)amino)-1,5-naphthyridin-3-yl)-1H-imidazol-4-yl)acetonitrile] | > 6.00 | > 6.00 |  |
| CC(C)c1cnnc(Nc2ccc3ncc(-c4cn(C)nc4Nc4cccnc4)cc3n2)c1 [Example 0469] | > 6.00 | > 6.00 |  |
| CC(C)c1cnnc(Nc2ccc3ncc(-c4cn(C)nc4NC4CCOCC4)cc3n2)c1 [Example 0832] | > 6.00 | > 6.00 |  |
| CCN1CC(OCCn2cc(-c3cnc4ccc(Nc5cc(C(C)C)cnn5)nc4c3)cn2)C1 [Example 0746, 7-(1-(2-((l-Ethylazetidin-3-yl)oxy)ethyl)-1H-pyrazol-4-yl)-N-(5-isopropylpyridazin-3-yl)-1,5-naphthyridine-2-amine] | > 6.00 | > 6.00 |  |
| CC(C)c1cnnc(Nc2ccc3ncc(C(N)=O)cc3n2)c1 [Example 0640, 6-((5-isopropylpyridazin-3-yl)amino)-1,5-naphthyridine-3-carboxamide] | 5.00 to 6.00 | > 6.00 |  |
| Cc1cn(-c2cnc3ccc(Nc4cc(C(C)C)cnn4)nc3c2)cn1 [Example 0494, N-(5-isopropylpyridazin-3-yl)-7-(4-methyl-1H-imidazol-1-yl)-1,5-naphthyridine-2-amine] | > 6.00 | > 6.00 |  |
| CC(C)c1cnnc(Nc2ccc3ncc(C(=O)NCCCCO)cc3n2)c1 [Example 0664] | 5.00 to 6.00 | 5.00 to 6.00 |  |
| CC(C)c1cnnc(Nc2ccc3ncc(-c4cnn(C[C@@H]5CCC(=O)N5)c4)cc3n2)c1 [Example 0556] | > 6.00 | > 6.00 |  |
| CC(C)c1cnnc(Nc2ccc3ncc(-c4cn(C)nc4N)cc3n2)c1 [Example 0636, 7-(3-amino-1-methyl-1H-pyrazol-4-yl)-N-(5-isopropylpyridazin-3-yl)-1,5-naphthyridine-2-amine] | > 6.00 | > 6.00 |  |
| CC(C)c1cnnc(Nc2ccc3ncc(-c4cn(C)nc4Nc4ccccc4)cc3n2)c1 [Example 0829] | > 6.00 | > 6.00 |  |
| CCCCOC1CN(c2cnc3ccc(Nc4cc(C(C)C)cnn4)nc3c2)C1 [Example 0870] | 5.00 to 6.00 | 5.00 to 6.00 |  |
| COc1cncc(-c2nn(C)cc2-c2cnc3ccc(Nc4cc(C(C)C)cnn4)nc3c2)c1 [Example 0451] | > 6.00 | > 6.00 |  |
| CC(C)c1cnnc(Nc2ccc3ncc(N4CCC(C(F)(F)F)C4)cc3n2)c1 (centres unmarked) [Example 0896] | 5.00 to 6.00 | 5.00 to 6.00 |  |
| Cc1nn(C)cc1-c1cnc2ccc(Nc3cc(C4CCC4)cnn3)nc2c1 [Example 0791] | > 6.00 | > 6.00 |  |
| CC(C)c1cnnc(Nc2ccc3ncc(-c4cnn(CCCN5CC(OCc6ccccc6)C5)c4)cc3n2)c1 [Example 0680] | > 6.00 | > 6.00 |  |
| CC(C)c1cnnc(Nc2ccc3ncc(-c4cnn(CCCN5CC(OCCF)C5)c4)cc3n2)c1 [Example 0713, 7-(1-(3-(3-(2-Fluoroethoxy)azetidin-1-yl)propyl)-1H-pyrazol-4-yl)-N-(5-isopropylpyridazin-3-yl)-1,5-naphthyridine-2-amine] | > 6.00 | > 6.00 |  |
| CC(C)c1cnnc(Nc2ccc3nccc(-c4cnn(C)c4)c3n2)c1 [Example 0447, N-(5-isopropylpyridazin-3-yl)-8-(1-methyl-1H-pyrazol-4-yl)-1,5-naphthyridine-2-amine] | > 6.00 | 5.00 to 6.00 |  |
| CC(C)c1cnnc(Nc2ccc3ncc(-c4cnn(CCCN5CCC(C(F)(F)F)CC5)c4)cc3n2)c1 [Example 0673] | > 6.00 | > 6.00 |  |
| CC(C)OC1CN(CCCn2cc(-c3cnc4ccc(Nc5cc(C(C)C)cnn5)nc4c3)cn2)C1 [Example 0710, 7-(1-(3-(3-Isopropoxyazetidin-1-yl)propyl)-1H-pyrazol-4-yl)-N-(5-isopropylpyridazin-3-yl)-1,5-naphthyridine-2-amine] | > 6.00 | > 6.00 |  |
| CC(C)c1cnnc(Nc2ccc3ncc(N4C[C@@H](C)O[C@@H](C)C4)cc3n2)c1 [Example 0873] | > 6.00 | > 6.00 |  |
| CCN(CCO[Si](C)(C)C(C)(C)C)c1cnnc(Nc2ccc3ncc(-c4cnn(C)c4)cc3n2)c1 [Example 0524] | 4.30 to 5.00 | > 6.00 |  |
| CC(C)c1cnnc(Nc2ccc3ncc(-c4cn(C)nc4CN4CCN(c5ccncc5)CC4)cc3n2)c1 [Example 0909] | > 6.00 |  | > 6.00 |
| CC(C)c1cnnc(Nc2ccc3ncc(-c4cn(C)nc4N4CCCC4)cc3n2)c1 [Example 0937] | > 6.00 |  | > 6.00 |
